We go through 1 compound from patent publication US20150150892A1, “METHODS AND PRODUCTS RELATED TO LUNG CANCER” (Massachusetts Institute of Technology, priority 2012, published 2015).

For data set [1], the system named is KP and KP^M cells. The data set can be described thus: Cleaved caspase 3 (CC3) immunoblot in lung adenocarcinoma cells. The format is cell-based, mouse. The settings on record: 5 nM bortezomib, 24 hours, KP and KP^M cells. The protocol: (§1) FIG. 1. Bortezomib inhibits NF-κB signaling and induces apoptosis in murine lung adenocarcinoma cell lines. (1A) reduction of nuclear p65 level by bortezomib. Two KP (KrasLSL-G12D/wt;p53flox/flox) cell lines (KP1 and KP2) were treated with 5 nM bortezomib (BZ) or vehicle control (ctrl) for 24 hours. Nuclear (N) and cytoplasmic (C) fractions of protein lysates were immunoblotted with the indicated antibodies. NEMO and Parp serve as cytoplasmic and nuclear loading controls, respectively. (1B) quantitative PCR analysis of a subset of NF-κB target genes in 5 nM bortezomib (BZ)-treated KP cells at the indicated time points. Vehicle control is set to 1. (1C) apoptosis in KP and KP^M (KrasLSL-G12D/wt;p53R127H/−) cells induced by bortezomib. Cells were pre-treated with 5 nM bortezomib for 24 hours, and protein lysates were immunoblotted with CC3 and tubulin antibodies. (1D) quantification of cell death in bortezomib-treated cells. Cells were treated with the indicated concentrations of bortezomib for 24 hours, and dead cells were quantified by Trypan blue staining. Error bars are SD (n=3).
FIG. 17: Bay-117082 induces cell death In KP cells. […] (17B) Bay-117082 induces apoptosis in KP cells. Cells were treated with 10IJM Bay-117082 for 48 hours. Protein lysates were immunoblotted with cleaved caspase 3 (CC3) and Tubulin antibodies.
Cell pellets were lysed in Laemmli buffer. […]
A general note: In western blotting, separated proteins are transferred to a membrane and probed.

In data set [2] the test system is KP and KP^M cells. The data set can be described thus: Trypan blue quantification of cell death. The format is cell-based, mouse. The settings on record: 24 hours, indicated concentrations. The protocol:
as §1
As the NF-κB pathway is known to inhibit apoptosis through its regulation of antiapoptotic genes, we next addressed the cytotoxicity of bortezomib in vitro (6).

The subject of data set [3] is NF-κB transcription factor subunit p65. The data set can be described thus: Immunoblot of nuclear and cytoplasmic p65 in KP cell lines. In kind it is cell-based, mouse. Conditions: 5 nM bortezomib, 24 hours, KP1 and KP2 cell lines, vs vehicle control. The protocol:
as §1
Cell pellets were lysed in Laemmli buffer. Equal amounts of protein (16 μg) were separated on 10% SDS-polyacrylamide gels and transferred to polyvinylidene difluoride membranes. […]

Data set [4] has as its system KrasLSL-G12D/wt;p53flox/flox (KP) lung tumors. Description: MicroCT lung tumor volume in KP mice. The format is in vivo, mouse. The text has this: FIG. 3: Bortezomib induces acute lung tumor regression in KrasLSL-G12D/wt;p53flox/flox (KP) mice, but not in KrasLSL-G12D/wt (K) mice. (3A and 3C) representative microCT images (n=6) of KP (3A) and K (3C) lung tumors prior to pre-treatment (D0) and 4 days (D4) after a single dose of vehicle control or bortezomib. (3 B and 3D) Quantification of tumor volume change (D4 compared with D0) in control- and bortezomib-treated mice. Each bar represents an individual tumor. P<10^−6 in KP mice (3B); P>0.05 in K mice (3D).
FIG. 5: Bortezomib increases survival in KP mice. (5A and 5B) Kaplan-Meier survival curve of vehicle control and bortezomib-treated KP (5A) and K (5B) mice. Arrows indicate weekly 1 mg/kg bortezomib regimen. (5C) quantification of lung tumor volume of control- and bortezomib-treated KP mice. From 10 weeks after Adeno-Cre infection, lungs were imaged by microCT to measure individual tumor volumes (n=4). Data points represent means of fold change and SD relative to 10 weeks (set to 1). Arrows indicate bortezomib injection. D, CC3 staining (×200) in lung tumors receiving 3 doses of control (“C”) and 1 final dose of bortezomib (“B,” left) or 4 doses of bortezomib (right). Tumors were harvested 48 hours after the last treatment (n=4).
The Massachusetts Institute of Technology (Cambridge, Mass.) Institutional Animal Care and Use Committee approved all animal studies and procedures. […]
At indicated time points, mice were scanned for 15 min under isoflurane anesthesia, using a small animal eXplore Locus microCT (GE Healthcare) at 45-μm resolution, 80 kV, with 450-mA current (47). […] Mice were imaged for 60 seconds, and signals in the lung were quantified using Xenogen software.
To understand the relevance of these findings in vivo, we examined bortezomib-mediated NF-κB inhibition in both KP and K models of lung cancer. […] Individual lung tumors were monitored using micro-computed tomography (microCT) imaging prior to treatment (D0) and 4 days post treatment (D4). […]

The conditions of data set [5]: human, in vivo; cited from earlier work.
Data set [6] has as its system CDK inhibitors p21 and p27. Conditions: cited from earlier work.
For data set [7], the system named is advanced NSCLC patients previously treated with chemotherapy. The settings on record: cited from earlier work.

Turning to `CC(C)C[C@H](NC(=O)[C@H](Cc1ccccc1)NC(=O)c1cnccn1)B(O)O` [bortezomib, N-(2-pyrazine) carbonyl-L-phenylalanine-L-leucine boronic acid], the “cleaved caspase 3 (CC3)” value in the data set on KP and KP^M cells [1] is listed as “increased cleaved caspase 3”. The “cell death by Trypan blue counting” value in the data set with KP and KP^M cells [2] is recorded as “caused cell death in a dose-dependent manner”. Further, the “nuclear accumulation of p65” value in data set [3] was “reduced nuclear accumulation”. For the same compound, the “tumor response by the 4th dose” value in data set [4] (once a week for 4 weeks, 13 weeks) is given as “insensitive to treatment”. For the same compound, the “tumor response after the first dose” value in data set [4] (once a week for 4 weeks, twice-weekly microCT, 10.5 weeks) is reported as “rapid KP tumor regression”. The “average decrease in tumor volume at D4 compared with D0” value in data set [4] (single dose 1 mg/kg i.v., 10 weeks after Adeno-Cre infection, microCT) is on record as 55.4%. Besides, the “side effects in the clinic” value in data set [5] is given as “manageable side effects”. Besides, the “effect on CDK inhibitors p21 and p27” value in data set [6] is given as “stabilize”. Also, in data set [7], the “effects in Phase II clinical trials” value is on record as “modest effects”.
